Reference: ChEMBL document CHEMBL1155554, “(2R,3R,7Z)-2-Aminotetradec-7-ene-1,3-diol, a new amino alcohol from the caribbean sponge Haliclona vansoesti” (J Nat Prod, 2000)
In brackets after ≈: the same amount, converted by molar mass.

Assay: Toxicity in brine shrimp
Format: organism-based
Settings: artemia, in vivo; read-out: LD50 (the source's name)

With CCCCCC/C=C\CCC[C@@H](O)[C@H](N)CO the LC50 was 9 µg/mL (≈ 37 µM).
